Read-outs that look alike come from different tables or passages of the source.
How the values were obtained:
[1] = test system: Mitochondrial Membrane Potential; assay: cells; conditions: for Specificity ratio (SRbaseline) SRMMP: against baseline cytotoxicity; for Relative effect potency REPMMP: relative to BPA; for SR (MMP inhibition): specificity ratio; for EC10, linear / logEC10: MMP bioassay, dosing range all; for EC10, linear: linear model; for logEC10: log-logistic model
Text: All bioassay media components and the ERα-UAS-bla GripTite and PPARγ-UAS-bla cells were obtained from Thermo Fisher Scientific (Waltham, MA, USA). AREc32 reporter gene cells based on MCF7 were provided by C. Roland Wolf (Cancer Research UK); AhR CALUX cells (H4L7.5c2 derived from H4IIe) were provided by Michael Denison (UC Davis, USA); and SH-SY5Y cells were purchased from Sigma-Aldrich.
(§1) Cell culture conditions and bioassay protocols including response detection are provided in Text S2.1–2.4 and Table S3. − Cell viability was determined from cell confluency using an IncuCyte S3 Live-Cell Analysis System (Sartorius AG, Essen, Germany) before and after exposure, except for SH-SY5Y cells (live–dead staining with Nuclear Green LcS1 and propidium iodide, Abcam, UK). For metabolic activation experiments, cell viability was assessed using the ToxBLAzer DualScreen Kit (Thermo Fisher Scientific) to capture the remaining toxicity in ERα-UAS-bla GripTite after treatment with the aCYP catalyst (details in Text S2.4).
For ARE, the concentration that triggered an induction ratio of 1.5 (ECIR1.5) was used as the benchmark value, as detailed in Text S2.5. IC10 values also served as a threshold for data analysis in all assays; only concentrations below IC10 were considered when deriving EC10 or ECIR1.5. […]
S2: Cell culture and bioassays
S2.1: Cell Culturing Conditions
All suppliers and sources are given in detail in SI-Excel S3. The bioassay media for the different assays were prepared as follows: Assay medium for ER alpha-UAS-bla GripTite (ERα) and […]
2% charcoal-stripped FBS, and 100 U/mL penicillin-streptomycin. MitoOxTox and AhR assay medium was comprised of 90% DMEM with GlutaMAX, supplemented with 10% FBS, and 100 U/mL penicillin-streptomycin. […]
S2.2: Cell Seeding and Incubation. For all bioassays, cell suspensions in the respective assay medium were dispensed into each well of 384-well plates using a MultiFlo Dispenser (Biotek, (now Agilent), Winooski, VT, U.S.). After seeding, the plates were incubated at 37° C and 5% CO₂ for […]. The final cell densities and plate types were as follows: Black poly-D-lysine […]
6500 cells/well, ERα: 5000 cells/well. White 384-well plates with a clear bottom (Product No.
(§2) NYC, U.S.) for AhR: 3250 cells/well. Black Collagen I coated plates were used (Product No.
(§3) S2.3: Chemical Dosing and Assay Analysis Procedures. The dosing procedure and high-throughput assay workflow have been described in detail before. 9 The dosing concentrations […]
Stock solutions were then either

SH-SY5Y cells = conditions: for IC10, linear transformed / IC10, linear / logIC10: NOI bioassay cytotoxicity, dosing range all; for IC10, linear: linear model; for logIC10: log-logistic model; for Toxic ratio (TR) TRNOI: against baseline cytotoxicity; for IC10, SH-S5Y5, NOI: cytotoxicity, NOI assay cells
Protocol: as §1, with “S2.4). […]” for “S2.4).”
We measured the cytotoxicity of BPA and its alternatives in HEK293H (PPARγ), HEK293T (ERα), H4IIe (AhR CALUX), MCF7 (ARE/MMP), and differentiated SH-SY5Y cells (Table S6). […]
medium, supplemented with 2% B-27 Supplement and 2 mM GlutaMAX Supplement. SH - SY5Y cells were differentiated with 10 µM all-trans retinoic acid prior to the assay.
S2.2: Cell Seeding and Incubation. For all bioassays, cell suspensions in the respective assay medium were dispensed into each well of 384-well plates using a MultiFlo Dispenser (Biotek, (now Agilent), Winooski, VT, U.S.). After seeding, the plates were incubated at 37° C and 5% […]
as §2, §3
Stock solutions were then either added directly to the respective cell culture medium or evaporated under nitrogen, followed by replenishment with fresh medium. The final solvent content in each well was kept below 1% for methanol, 0% for acetonitrile.
Dosing plates were prepared as 11 -step serial dilutions using a Hamilton Microlab Star robotic system (Hamilton, Bonaduz, Switzerland), and chemicals were dosed in duplicates by transferring 10 μL twice from the dosing plates to the cell plates . After quantifying cell confluency as described in S2. 4., the exposed cells were incubated at 37° C and 5% CO₂ for an additional 24 h. All chemicals were tested in all assays with at least three independent […]
S2.4: Cell Viability Measurement s and bioanalytical protocols . The confluency as a measure of cell viability was determined with an IncuCyte S3 Live -Cell Analysis System (Sartorius AG, Essen, Germany). With this method the confluency of cells in a microscopy image are normalized to control wells without cells and compared before and after 24 hours of exposure.
This method has been described previously 13. Cell viability of SH-SY5Y cells was measured […]
propidium iodide (PI, Abcam, Cambridge, U.K.).14 Nuclear Green LCS1 is a membrane-permeable dye that stains the nuclei of all cells, whereas PI only enters cells with compromised membrane integrity (non-viable cells). After staining, live cells show green nuclei without red fluorescence, while dead cells display both green and red nuclear fluorescence due to PI […]
intercalation. […]

[2] = Arec32, read-out: EC10, MMP (M)
[3] = Arec32, read-out: EC10, linear transformed

Structure (SMILES) | EC10 ([1]; Arec32, read-out: EC10, MMP) | EC10 [1, 2] | EC10 ([1]; Arec32, read-out: EC10, linear) | EC10 [1, 3] | EC10 ([1]; Arec32, read-out: logEC10) | Specificity ratio (SRbaseline) SRMMP [1] | Specificity ratio (SRcytotoxicity) SRMMP ([1]; against experimental cytotoxicity) | Relative effect potency REPMMP [1] | SR (MMP inhibition) [1] | IC10, linear transformed (SH-SY5Y cells) | IC10, linear (SH-SY5Y cells) | logIC10 (SH-SY5Y cells) | Toxic ratio (TR) TRNOI (SH-SY5Y cells) | IC10, SH-S5Y5, NOI (SH-SY5Y cells) | EC10, linear [1] | logEC10 [1] | EC10 (MMP inhibition) [1] | Specificity ratio (SRcytotoxicity) SRMMP ([1]; human, 24 h) | log(1/EC10) MMP ([1]; input of the ToxPi score, values up to 1.00)
O=C(OCc1ccccc1)c1ccc(O)cc1 [BzPB, Benzyl 4-hydroxybenzoate] | 2.44e-05 M | 2.44e-05 M | 1.68e-05 M | 2.45e-05 M | 2.45e-05 M | 1.38 | 12.18 | 1.15 | > 10 | 3.89E-04 | no cytotoxicity | -3.41 | 0.07 | 389 µM |  |  |  |  | 
CC1(C)[C@H](O)C(C)(C)[C@H]1O [Trans TMCD] |  |  | 0.0141 M | 0.0185 M | 0.0186 M |  |  |  |  |  | no cytotoxicity | no cytotoxicity |  |  |  |  |  |  | 
C=CCOc1ccc(S(=O)(=O)c2ccc(O)cc2)cc1 [BPS-MAE, 4-[[4-(Allyloxy)phenyl]sulfonyl]phenol] | 7.85e-05 M | 7.85e-05 M | 5.59e-05 M | 8.31e-05 M | 7.76e-05 M |  |  |  |  | 1.36E-04 | no cytotoxicity | -3.87 |  | 136 µM |  |  |  |  | 
Oc1ccc(C(c2ccc(O)cc2)(C(F)(F)F)C(F)(F)F)cc1 [BPAF, 4,4'-(1,1,1,3,3,3-Hexafluoropropane-2,2-diyl)diphenol] | 5.32e-06 M | 5.32e-06 M | 3.05e-06 M | 5.27e-06 M | 5.37e-06 M |  |  |  |  | 6.64E-05 | 7.35E-05 | -4.18 |  | 66.4 µM |  |  |  |  | 
Cc1ccc(S(=O)(=O)NC(=O)Nc2ccc(Cc3ccc(NC(=O)NS(=O)(=O)c4ccc(C)cc4)cc3)cc2)cc1 [BTUM, 4,4'-Bis(p-tolylsulfonylureido)diphenylmethane] |  |  |  |  |  |  |  |  |  |  | no cytotoxicity | no cytotoxicity |  |  | no effect | no effect |  |  | 
CC(C)(c1cc(Br)c(O)c(Br)c1)c1cc(Br)c(O)c(Br)c1 [TBBPA, 3,3',5,5'-Tetrabromobisphenol A] | 2.83e-05 M | 2.83e-05 M | 1.94e-05 M | 2.89e-05 M | 2.82e-05 M |  |  |  |  |  | no cytotoxicity | no cytotoxicity |  |  |  |  |  |  | 
CC(c1ccccc1)(c1ccc(O)cc1)c1ccc(O)cc1 [BPAP, 4,4'-(1-Phenylethylidene)bisphenol] |  |  |  | 2.84e-05 M |  |  |  |  |  | 1.06E-04 | no cytotoxicity | -3.97 |  | 106 µM | no effect | no effect |  |  | 
CC(C)(c1ccc(O)cc1)c1ccc(O)cc1 [BPA, 4,4'-(Propane-2,2-diyl)diphenol, reference compound] | 2.8e-05 M | 2.8e-05 M | 2.1e-05 M | 2.79e-05 M | 2.82e-05 M | 0.92 |  | 1.00 | 3 | 2.37E-04 | no cytotoxicity | -3.62 | 0.0846 | 237 µM |  |  | 28 µM | 2.92 | 0.71
